Laboratory results: PubChem BioAssay AID248 (DTP/NCI, 2004)
Toxic doses and inconclusive results are not listed. Cut-off read from the data, not from the text of the source: active = T/C of 150% or more; inactive = T/C below 125%.

Tested on: L1210 leukemia ip in BDF1 mice, survival T/C
Assay: NCI In Vivo Anticancer Drug Screen. Data for tumor model L1210 Leukemia (intraperitoneal) in B6D2F1 (BDF1) mice
Conditions: endpoint: mean survival time, higher = longer survival
Summary of the method: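 Mice bearing the transplanted tumor received compound or vehicle. Survival of the treated group was divided by that of the vehicle-treated control group to give the ratio.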

[1] = dose: 100.0 mg/kg/injection, schedule: Q01DX009 (ip), vehicle: saline
[2] = dose: 100.0 mg/kg/injection, schedule: Q04DX003 (ip), vehicle: saline
[3] = dose: 100.0 mg/kg/injection, schedule: Q04DX002 (ip), vehicle: Klucel (hydroxypropylcellulose) (HPC)
[4] = dose: 200.0 mg/kg/injection, schedule: Q04DX002 (ip), vehicle: Klucel (hydroxypropylcellulose) (HPC)
[5] = dose: 100.0 mg/kg/injection, schedule: Q01DX001 (ip), vehicle: other
[6] = dose: 200.0 mg/kg/injection, schedule: Q01DX001 (ip), vehicle: other
[7] = dose: 400.0 mg/kg/injection, schedule: Q01DX001 (ip), vehicle: other
[8] = dose: 100.0 mg/kg/injection, schedule: Q01DX009 (ip), vehicle: Klucel (hydroxypropylcellulose) (HPC)
[9] = dose: 200.0 mg/kg/injection, schedule: Q01DX009 (ip), vehicle: Klucel (hydroxypropylcellulose) (HPC)
[10] = dose: 400.0 mg/kg/injection, schedule: Q01DX009 (ip), vehicle: Klucel (hydroxypropylcellulose) (HPC)
[11] = dose: 100.0 mg/kg/injection, schedule: Q01DX009 (ip), vehicle: saline with Tween-80
[12] = dose: 200.0 mg/kg/injection, schedule: Q01DX009 (ip), vehicle: saline with Tween-80
[13] = dose: 100.0 mg/kg/injection, schedule: Q01DX001 (ip), vehicle: saline with Tween-80

Measured: T/C

Cn1c[n+](C)cc1C(=O)[O-]
inactive: [1] 91 % of control | [2] 97 % of control | dose: 200.0 mg/kg/injection, schedule: Q01DX009 (ip), vehicle: saline 97 % of control | dose: 200.0 mg/kg/injection, schedule: Q04DX003 (ip), vehicle: saline 102 % of control | dose: 400.0 mg/kg/injection, schedule: Q01DX009 (ip), vehicle: saline 95 % of control | dose: 400.0 mg/kg/injection, schedule: Q04DX003 (ip), vehicle: saline 109 % of control

CC(=O)Nc1cccc(N)c1
inactive: dose: 25.0 mg/kg/injection, schedule: Q01DX009 (ip), vehicle: saline 95 % of control | dose: 25.0 mg/kg/injection, schedule: Q04DX003 (ip), vehicle: saline 103 % of control | dose: 50.0 mg/kg/injection, schedule: Q01DX009 (ip), vehicle: saline 108 % of control | dose: 50.0 mg/kg/injection, schedule: Q04DX003 (ip), vehicle: saline 97 % of control | [1] 101 % of control | [3] 86 % of control | [2] 94 % of control | [4] 107 % of control

O=c1oc2cc(N=Cc3ccc4c(c3)OCO4)ccc2c2ccccc12
inactive: [5] 91 % of control | [6] 93 % of control | [7] 90 % of control

CCOC(=O)n1cnc2nc(N)nc(Cl)c21
inactive: dose: 50.0 mg/kg/injection, schedule: Q01DX001 (ip), vehicle: saline 103 % of control | dose: 100.0 mg/kg/injection, schedule: Q01DX001 (ip), vehicle: saline 105 % of control | dose: 200.0 mg/kg/injection, schedule: Q01DX001 (ip), vehicle: saline 100 % of control | dose: 400.0 mg/kg/injection, schedule: Q01DX001 (ip), vehicle: saline 122 % of control

COc1ccc([N+](=O)[O-])cc1NC(=S)NC(=O)c1cccc(Br)c1
inactive: [8] 92 % of control | [9] 92 % of control | [10] 97 % of control

O=C(Nc1nccs1)c1cc2ccccc2cc1O
inactive: dose: 100.0 mg/kg/injection, schedule: Q04DX002 (ip), vehicle: saline with Tween-80 97 % of control | dose: 200.0 mg/kg/injection, schedule: Q04DX002 (ip), vehicle: saline with Tween-80 87 % of control | dose: 400.0 mg/kg/injection, schedule: Q04DX002 (ip), vehicle: saline with Tween-80 87 % of control

COc1ccc(N(N=O)C(C)=O)cc1
inactive: dose: 5.0 mg/kg/injection, schedule: Q01DX001 (ip), vehicle: saline 95 % of control | dose: 10.0 mg/kg/injection, schedule: Q01DX001 (ip), vehicle: saline 97 % of control | dose: 20.0 mg/kg/injection, schedule: Q01DX001 (ip), vehicle: saline 106 % of control | dose: 40.0 mg/kg/injection, schedule: Q01DX001 (ip), vehicle: saline 106 % of control

CCCCNC(C)(C)C(SSSC(c1ccc(Cl)cc1)C(C)(C)NCCCC)c1ccc(Cl)cc1 (configuration not stated)
inactive: dose: 12.0 mg/kg/injection, schedule: Q01DX009 (ip), vehicle: Klucel (hydroxypropylcellulose) (HPC) 104 % of control | dose: 25.0 mg/kg/injection, schedule: Q01DX009 (ip), vehicle: Klucel (hydroxypropylcellulose) (HPC) 100 % of control | dose: 50.0 mg/kg/injection, schedule: Q01DX009 (ip), vehicle: Klucel (hydroxypropylcellulose) (HPC) 100 % of control

O=C(O)C1C(=O)OC2CCCCC21 (configuration not stated)
inactive: dose: 50.0 mg/kg/injection, schedule: Q01DX009 (ip), vehicle: saline with Tween-80 88 % of control | [11] 88 % of control | [12] 95 % of control

O=C(O)COc1ccccc1CO
inactive: [13] 91 % of control | [11] 88 % of control | dose: 200.0 mg/kg/injection, schedule: Q01DX001 (ip), vehicle: saline with Tween-80 94 % of control | [12] 94 % of control | dose: 400.0 mg/kg/injection, schedule: Q01DX001 (ip), vehicle: saline with Tween-80 92 % of control | dose: 400.0 mg/kg/injection, schedule: Q01DX009 (ip), vehicle: saline with Tween-80 91 % of control

CCCCCCCc1nc(N)nc(N2CCOCC2)n1
inactive: [3] 89 % of control | [4] 100 % of control | dose: 400.0 mg/kg/injection, schedule: Q04DX002 (ip), vehicle: Klucel (hydroxypropylcellulose) (HPC) 110 % of control

CC1CCC2C1C1C(CCC2(C)O)C1(C)C (configuration not stated)
inactive: dose: 100.0 mg/kg/injection, schedule: Q01DX009 (ip), vehicle: other 90 % of control | dose: 100.0 mg/kg/injection, schedule: Q04DX003 (ip), vehicle: saline sonified 103 % of control | dose: 200.0 mg/kg/injection, schedule: Q01DX009 (ip), vehicle: other 95 % of control | dose: 200.0 mg/kg/injection, schedule: Q04DX003 (ip), vehicle: saline sonified 103 % of control | dose: 400.0 mg/kg/injection, schedule: Q01DX009 (ip), vehicle: other 98 % of control | dose: 400.0 mg/kg/injection, schedule: Q04DX003 (ip), vehicle: saline sonified 102 % of control

O=C1c2ccccc2-c2ccc(N3C(=O)c4ccccc4C3=O)cc21
inactive: dose: 16.5 mg/kg/injection, schedule: Q01DX001 (ip), vehicle: saline with Tween-80 88 % of control | dose: 37.5 mg/kg/injection, schedule: Q01DX001 (ip), vehicle: saline with Tween-80 92 % of control | dose: 50.0 mg/kg/injection, schedule: Q01DX001 (ip), vehicle: saline with Tween-80 95 % of control | [13] 91 % of control

O=C1C(Cl)CCCCC1Cl (configuration not stated)
inactive: dose: 100.0 mg/kg/injection, schedule: Q01DX009 (ip), vehicle: acetone 93 % of control | dose: 100.0 mg/kg/injection, schedule: Q04DX003 (ip), vehicle: acetone 111 % of control | dose: 200.0 mg/kg/injection, schedule: Q01DX009 (ip), vehicle: acetone 91 % of control | dose: 200.0 mg/kg/injection, schedule: Q04DX003 (ip), vehicle: acetone 111 % of control | dose: 400.0 mg/kg/injection, schedule: Q04DX003 (ip), vehicle: acetone 92 % of control

CC(C)CC([NH-])C(=O)[O-].O=C(O)C(=O)O.[Co+3].[NH-]CCN(CC[NH-])CC[NH-]
inactive: dose: 50.0 mg/kg/injection, schedule: Q01DX001 (ip), vehicle: other 92 % of control | [5] 100 % of control | [6] 94 % of control | [7] 86 % of control

CCOC(=O)CN=NNc1ccc(C(=O)OCC)cc1
inactive: dose: 25.0 mg/kg/injection, schedule: Q01DX009 (ip), vehicle: other 95 % of control | dose: 50.0 mg/kg/injection, schedule: Q01DX009 (ip), vehicle: other 96 % of control | dose: 50.0 mg/kg/injection, schedule: Q04DX003 (ip), vehicle: other 105 % of control | [5] 98 % of control | dose: 100.0 mg/kg/injection, schedule: Q04DX003 (ip), vehicle: other 104 % of control | [6] 95 % of control

CCCCOCCOP(OCCOCCCC)OCCOCCCC
inactive: [8] 101 % of control | [9] 102 % of control | [10] 90 % of control

CC(Br)(CBr)CCC(C)(Br)CBr (configuration not stated)
inactive: dose: 100.0 mg/kg/injection, schedule: Q04DX003 (ip), vehicle: Klucel (hydroxypropylcellulose) (HPC) 94 % of control | dose: 200.0 mg/kg/injection, schedule: Q04DX003 (ip), vehicle: Klucel (hydroxypropylcellulose) (HPC) 96 % of control | dose: 400.0 mg/kg/injection, schedule: Q04DX003 (ip), vehicle: Klucel (hydroxypropylcellulose) (HPC) 91 % of control
